Here are results for 3 compounds from patent publication US5141627A, “Chelators whose affinity for calcium ion is increased by illumination” (The Regents of the University of California, priority 1989, dated 1992).

Data set [1] in a line: Yield of high affinity chelator / low-affinity side product after photolysis. Format: physicochemical. As to the method:
Because of the direct conjugation of the dialkylamine moiety with the diazoketone group, diazo-2 has a large absorbance in the 350-400 nm range, which shifts 50 nm to shorter wavelengths on binding Ca^2+ (FIG. 1A). The dissociation constant for Ca^2+ is relatively high, at 2.2 μM, due to the electron withdrawing ability of the carbonyl group. Photolysis occurs at 365 nm with a quantum yield of 0.030. The peak at […] in zero Ca^2+ decreases to near baseline giving a spectrum similar to that of unsubstituted BAPTA, although a small peak remains at 355 nm (FIG. 1B). […] The reaction of diazo-2 with dilute aqueous acid should give the same product whose absorbance spectrum indeed matched that of the residual peak at 355 nm after photolysis in low Ca^2+. […] Once the extinction coefficient for the hydroxyacetyl derivative was known, the amount of the side product arising from photolysis is calculated to be about 10%.

The nature of data set [2]: Quantum efficiency and completion of photolysis. It counts as physicochemical. As to the method:
Spectra were obtained after 0, 2, 5, 9, 16, 28, 46, 80, 150, 285, 505 and 903 sec of 365-nm illumination at 7.82×10^- 9 einsteins cm^-2 s^-1 from Spectroline lamp. For clarity only the 0-, 9-, 28-, 46-, 80-, 150-, and 505-s spectra are reproduced herein. The 505- and 903-s spectra were identical, confirming completion of photolysis after those times. Solutions were at 22±2° C.
The method was as described in FIG. 1B except that the EGTA was replaced by 2 mM CaCl2, and spectra were measured after 0-, 50-, 100-, 203-, 412-, 840-, 1730-, 4080-, and 8000-s illumination. The last two spectra were identical, confirming completion. For clarity the 50- and 8000-s spectra are omitted.
The photolysis quantum efficiencies of diazo chelators were determined by alternately irradiating a buffered solution of the substrate with a known intensity of longwave UV light, and measuring the absorbance spectrum, in apparatus described by S. R. Adams, et al. (1988), supra.

Data set [3] can be described thus: Ca2+ affinity by UV spectra during titration of EGTA or HEEDTA buffers. Format: binding. As for the experimental part:
(§1) The titration was done at 22° C. with 10 mL of 100 mM KCl, 10 mM K-MOPS, 10 mM K2 H.HEEDTA, and 14 […] diazo-2 as starting materials, adjusting the pH to 7.24, recording the spectrum, and then discarding 1.0 mL of this solution and replacing with 1.0 mL of 100 mM KCl, 10 mM K.MOPS, 10 mM KCa.HEEDTA, 14 μM diazo-2, readjusting the pH to 7.24, and recording the spectra, which was then in 9 mM K2H.HEEDTA. Subsequent iterations to reach n mM KCa.HEEDTA, (10-n) mM HEEDTA, n=2-10, were done by discarding 10.0/(11-n) mL and replacing with equal volumes of the 10mM KCa.HEEDTA, 14 μM diazo-2 stock. After n=10 had been reached to give free Ca^2+ between 10^-5 and 10^-4 M, addition of 1 mM CaCl2 had no further effect on the spectrum. For clarity only six spectra are including in the figure, n=0, 2, 4, 6, 8, and 10. Each spectrum is labeled with the calculated free [Ca^2+ ] imposed by the HEEDTA buffer, assuming a log effective stability constant of 5.55 at pH 7.24.
(§2) The phenylacetate was produced by irradiating a 30 μM solution of diazo-2 in 100 mM KCl, 10 mM Tris.HCl, 10 mM K2 H.HEEDTA, pH 8.40, with Spectroline lamp at 365 nm to completion. The titration was then performed as in A but the pH was maintained at 8.40, at which the calculated log effective stability is constant for HEEDTA was 6.60.
(§3) Ca^2+ -binding constants for chelators before and after photolysis were determined by monitoring UV spectra during titration of EGTA or HEEDTA buffers to varying free Ca^2+ levels.
Either the ratio of, for example, [Ca.EGTA] to free [EGTA] was adjusted at a constant pH, or the pH was varied while [Ca.EGTA]=[EGTA]. These two approaches gave equivalent answers for pH>7 whenever directly tested, because of the pH insensitivity of BAPTA-like ligands (see FIG. 1 legend for more details). The apparent dissociation constants of Ca.EGTA and Ca.HEEDTA were calculated as described by R. Y. Tsien (1980); see also R. Y. Tsien, et al. (1986), S. R. Adams, et al. (1980), Grynkiewicz, et al., (1985), and Jackson, et al. (1987).

A short description of data set [4]: Mg2+ affinity in Mg/EGTA buffers. The conditions noted are these: after photolysis; 0.1-0.15M ionic strength, pH 7.0-7.4, 20-23° C.; read-out: Kd (Mg2+), after photolysis. Format: binding. As for the experimental part:
as §3
Free [Mg^2+ ] was likewise controlled by Mg/EGTA buffers, assuming an apparent dissociation constant for the Mg.EGTA complex (including its monoprotonated form) of 6 mM at pH 7.60 in 0.1M ionic strength; see R. Y. Tsien, et al. (1986) and A. E. Martell, et al. (1974).

The nature of data set [5]: Absorbance spectra of free and Ca2+-bound chelators. Format: physicochemical. As for the experimental part: as §1, §2
Proton magnetic resonance spectra (^1 H NMR) were recorded on a Varian EM-390 90-MHz spectrometer in CDCl3 unless otherwise noted, and the chemical shifts are given in δ values relative to tetramethylsilane. Ultraviolet (UV) absorbance spectra were recorded on a Cary 210 or a Perkin-Elmer Lambda Array 3840 spectrophotometer at 20°±2° C. Melting points are in Centigrade and are uncorrected. Elemental analyses were performed by the Microanalytical Laboratory in the Department of Chemistry, University of California, Berkeley, Calif.

For data set [6], the system named is REF52 fibroblast cell. Put plainly: Intracellular free Ca2+ in REF52 fibroblasts on vasopressin stimulation and UV photolysis (fluo-3). It counts as cell-based, Fisher rat. The conditions noted are these: 50 nM [arg8]-vasopressin. An excerpt:
The tetraacetoxymethyl esters of diazo-2 and diazo-3 were synthesized. The acetoxymethyl (AM) groups mask the negative charges on the carboxylate functions, so the AM ester of diazo-2 and diazo-3 can easily diffuse across the cell membrane, which is largely impermeable to ions. Once inside the cell, non-specific esterases in the cell hydrolytically cleave the AM esters and restore diazo-2 and diazo-3 to their tetracarboxylate forms, which being polyanions, are trapped within the cell. […] Prior to the start of data acquisition (t=0), the REF52 fibroblast cell was loaded with diazo-2 and fluo-3. […] Its fluorescence quantum yield is enhanced about 40-fold by Ca^2+ binding, which occurs with a Kd of 400 nM.
Prior to the start of data acquisition, the REF52 fibroblast cell was loaded with fluo-3 and diazo-2 by incubation for 30 min at 25° C. DME medium containing 1 μM diazo-2/AM and 10 μM fluo-3/AM. Acquisition of fluo-3 fluorescence intensity images was begun at time 0. The fluorescence intensity data was converted to intracellular Ca^2+ concentrations using a calibration procedure previously described. The event markers correspond to 1) stimulating the cell with 50 nM [arg^8 ]-vasopressin,and 2) flashing the cell for 1 s with UV light.
The experimental conditions were the same as in (A) except that the cell wa loaded with fluo-3 and diazo-3 (instead of diazo-2) by incubation for 90 min at 25° C. in DME medium containing 10 μm fluo-3/AM and […] diazo-3/AM. The event markers correspond to 1) stimulating the cell with 50 nM [arg^8 ]-vasopressin, and 2) flashing the cell for 1 s of UV light.
For preliminary biological tests, Fisher rat embryo fibroblast of the REF52 cell line were cultured as described by J. P. Y. Kao, et al. (1989).
For testing diazo-2, REF52 cells were incubated for 30 min at 25° C. in Dulbecco's modified Eagle's medium, buffered at pH 7.4 with 20 mM HEPES and containing 1 μM diazo-2/AM and 10 μM fluo-3/AM. For control experiments using diazo-3, the cells were incubated for 90 min at 25° C. in DMEM, buffered to pH 7.4 with 20 mM HEPES and containing 1 μM diazo-3/AM and […] fluo-3/AM. After loading, the cells were gently washed, transferred into Hanks' Balanced Salt Solution containing 0.2 mM sulfinpyrazone to inhibit non-specific organic anion transport (see Tsien, 1989), and mounted on a 25° C. microscope stage for experimentation.
Flash photolysis of trapped cellular diazo-2 and the concomitant monitoring of intracellular free Ca^2+ concentration with fluo-3, a fluorescent Ca^2+ indicator, were performed using methodology and instrumentation described in A. Minta, et al (1989) and J. P. Y. Kao, et al. (1989). Briefly, output form a Xe arc lamp was passed through a monochromator to yield the 490 nm light used to probe the fluo-3 trapped intracellularly. The fluo-3 fluorescence images of cells were recorded using a SIT TV camera. Images were stored on a high-resolution monochrome laser disc recorder (Panasonic TQ-2028) for delayed processing. Photolyses were performed by briefly moving a chopper mirror to send broad-band UV from an XBO 75 W xenon arc lamp and UG-2 filter into the microscope instead of 490 nm fluo-3 excitation. The microscope objective (Nikon UV-CF, 40X) was chosen for its high UV transmission and numerical aperture (1.3). […] The same computer was used to analyze the fluorescence images acquired during the experiment.

pKd: −log10 of the molar value. Bridges are numbered along the chain shown (N, C = ends). Where no end group is shown, it is not given here.

Take `Cc1ccc(N(CC(=O)O)CC(=O)O)c(OCCOc2cc(C(=O)CO)ccc2N(CC(=O)O)CC(=O)O)c1` [para-(2-hydroxyacetyl) derivative]: in data set [1] (hydroxyacetyl derivative, from photolysis of diazo-2, calculated), the “amount of side product arising from photolysis” value is recorded as “about 10%”. In data set [2] (product of diazo-2 with dilute aqueous acid), the “photosensitivity (in words)” value is reported as “complete lack of photosensitivity”. Moreover, in data set [3] (side product after photolysis of diazo-2, from deviation of Hill plot, read-out: dissociation constant of side product), the pKd is approximately 6.00.
Regarding `[N-]=[N+]=CC(=O)c1ccc(N(CC(=O)O)CC(=O)O)c(OCCOc2cc(C(=O)C=[N+]=[N-])ccc2N(CC(=O)O)CC(=O)O)c1` [diazo-4, 1,2-bis(2-bis(carboxymethyl)amino-5-(diazoacetyl)phenoxy)ethane], in data set [1] (after photolysis), the “Photolysis yield (yield of high affinity Ca2+ chelator after photolysis)” value amounted to 88. The “low-affinity side product on complete photolysis, expected” value in data set [1] (complete photolysis, expected) is recorded as 19%. Further, in data set [1] (residual absorbance at 355 nm), the “low-affinity side product on complete photolysis, measured” value was found to be 20%. For the same compound, in data set [2] (compared with diazo-2), the “quantum yield relative to diazo-2” value is listed as “approximately half that of diazo-2”. Further, the “Φ quantum efficiency of photolysis, +Ca2+” value in data set [2] (saturating [Ca2+]) came to 0.015. In data set [2] (zero [Ca2+]), the “Φ quantum efficiency of photolysis, free” value is reported as 0.015. The pKd in data set [4] was 2.59; in data set [3] (after photolysis, 0.1-0.15M ionic strength, 20-23° C., read-out: Kd (Ca2+), after photolysis) it was 7.26; in data set [3] (before photolysis, 0.1-0.15M ionic strength, pH 7.0-7.4, 20-23° C., read-out: Kd (Ca2+), before photolysis), 4.05. Further, the “εmax, +Ca2+” value in data set [5] (+Ca2+, at λmax) was 42.3 10^-3, M^-1 cm^-1. Moreover, the “λmax, +Ca2+” value in data set [5] (+Ca2+, dominant peak at longest wavelength) was found to be 320 nm. In addition, the “εmax, free” value in data set [5] (free (zero Ca2+), at λmax) is listed as 46.0 10^-3, M^-1 cm^-1. In addition, the “λmax, free” value in data set [5] (free (zero Ca2+), dominant peak at longest wavelength) is given as 371 nm. Moreover, the “change in Ca2+ affinity upon photolysis” value in data set [3] (complete photolysis) turned out to be 1600 fold.
As to “[arg^8 ]-vasopressin: stimulus of the REF52 cell, 50 nM (CYFQNCPRG-NH2; disulfide 1-6; UniProt P01185 20-28, looked up) [reference compound]”, in data set [6], the “[Ca2+]i response to stimulation (in words)” value is “sharp but transient rise”. For the same compound, in data set [6] (before UV), the “[Ca2+]i plateau after stimulation” value is on record as “about 200 nM”.
